Reference: publication PMC9424690, “Phosphonic acid-containing inhibitors of tyrosyl-DNA phosphodiesterase 1” (Frontiers in Chemistry, 2022)
Read-outs that look alike come from different tables or passages of the source.

Columns and labels:
TDP1 (148–608) = target: T1, TDP1 (148–608) (Homo sapiens, UniProt Q9NUW8); assay: Gel-based fluorescence assay of TDP1-catalyzed hydrolysis, truncated TDP1 (148–608); type: biochemical; conditions: for IC50: truncated TDP1 (148–608) catalytic domain, 5′-Cy5 N14Y DNA substrate, 15 min, room temperature, repeated three times
T1 construct: was incubated with recombinant full-length TDP1 or TDP1 (148–608) (40 p.m.)
Protocol: (§1) The synthetic products were examined for their ability to inhibit TDP1 catalysis in in vitro gel-based fluorescence assays as previously described ([Lountos et al., 2019]; [Zhao et al., 2021]). A 5′-Cy5-labelled DNA substrate (N14Y, 5′-Cy5-[…]-pY-3′) was incubated in TDP1 reaction buffer with recombinant TDP1 ([…].) or truncated TDP1 (148–608) in the absence or presence of inhibitors for 15 min at room temperature. Inhibitors were evaluated at concentrations ranging from 12 μM to 27 mM (Figure 4). The TDP1 inhibition values were calculated based on gel images of cleavage product (N14P, 5′-Cy5-[…]-p-3′) shown in Figure 4 and listed in Table 1.
(§2) The inhibition of TDP1 was also conducted according to gel-based as previously described ([Lountos et al., 2019]; [Zhao et al., 2021]). Briefly, the DNA substrate (1 nM, 5′Cy5-[…]-pY-3′) was incubated with recombinant full-length TDP1 or TDP1 (148–608) (40 p.m.) in the absence or presence of inhibitors for 15 min at room temperature in TDP1 reaction buffer (50 mM Tris HCl, pH 7.5, 80 mM KCl, 2 mM EDTA, 1 mM DTT, 40 μg/ml BSA and 0.01% Tween-20). Reactions were stopped by adding an equal volume of gel loading buffer (99.5% (v/v) formamide, 5 mM EDTA). Samples were then subjected to a 20% denaturing PAGE gel following by gel scanning using a Typhoon FLA 9500 scanner (GE Healthcare). The IC50 values of TDP1 inhibitors were calculated by comparing the percentage of cleavage product (5′Cy5-[…]-p-3′) to DMSO control.

full-length TDP1 [1] = target: T2, full-length TDP1 (Homo sapiens, UniProt Q9NUW8); assay: Gel-based fluorescence assay of TDP1-catalyzed hydrolysis, full-length TDP1; type: biochemical; conditions: for IC50: full-length recombinant TDP1, 5′-Cy5 N14Y DNA substrate, 15 min, room temperature, repeated three times
T2 construct: was incubated with recombinant full-length TDP1 or TDP1 (148–608) (40 p.m.)
Protocol: as §1, §2

[2] = Drug solubility observed at high concentrations in the gel assay; type: physicochemical; conditions: high concentrations in TDP1 gel assay (crescent vague bands); series up to 9 mM (3c) or 27 mM
Protocol: FIGURE 4 Representative gels for inhibition of full-length TDP1-catalyzed hydrolysis by phenylphosphonic acids 3a—3e and benzylphosphonic acids 4a—4c. In each gel: lane 1, N14Y only; lane 2, N14Y and TDP1; lanes 3–10, 3-fold serial dilution of drugs from 12 μM to 27 mM except for 3c from 12 μM to 9 mM.

full-length TDP1 [3] = target: T2, full-length TDP1; parameters: method as in Zhao et al., 2021; conditions: gel-based fluorescence assay, compounds reported in previous paper, ref Zhao et al., 2021; cited from earlier work

T1 sequence (Q9NUW8 148-608): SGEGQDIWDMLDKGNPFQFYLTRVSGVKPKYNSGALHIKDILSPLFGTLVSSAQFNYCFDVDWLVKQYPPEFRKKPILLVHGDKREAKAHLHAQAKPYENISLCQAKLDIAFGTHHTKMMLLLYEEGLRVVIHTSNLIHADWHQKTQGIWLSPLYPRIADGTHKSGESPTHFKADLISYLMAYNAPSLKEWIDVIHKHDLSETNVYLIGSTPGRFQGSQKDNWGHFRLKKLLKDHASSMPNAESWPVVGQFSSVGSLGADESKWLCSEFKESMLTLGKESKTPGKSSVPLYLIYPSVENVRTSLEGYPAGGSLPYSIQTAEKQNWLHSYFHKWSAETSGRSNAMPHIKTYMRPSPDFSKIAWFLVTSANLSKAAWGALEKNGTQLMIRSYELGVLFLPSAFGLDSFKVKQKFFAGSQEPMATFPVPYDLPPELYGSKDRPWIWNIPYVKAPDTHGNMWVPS
T2 sequence (Q9NUW8 whole entry): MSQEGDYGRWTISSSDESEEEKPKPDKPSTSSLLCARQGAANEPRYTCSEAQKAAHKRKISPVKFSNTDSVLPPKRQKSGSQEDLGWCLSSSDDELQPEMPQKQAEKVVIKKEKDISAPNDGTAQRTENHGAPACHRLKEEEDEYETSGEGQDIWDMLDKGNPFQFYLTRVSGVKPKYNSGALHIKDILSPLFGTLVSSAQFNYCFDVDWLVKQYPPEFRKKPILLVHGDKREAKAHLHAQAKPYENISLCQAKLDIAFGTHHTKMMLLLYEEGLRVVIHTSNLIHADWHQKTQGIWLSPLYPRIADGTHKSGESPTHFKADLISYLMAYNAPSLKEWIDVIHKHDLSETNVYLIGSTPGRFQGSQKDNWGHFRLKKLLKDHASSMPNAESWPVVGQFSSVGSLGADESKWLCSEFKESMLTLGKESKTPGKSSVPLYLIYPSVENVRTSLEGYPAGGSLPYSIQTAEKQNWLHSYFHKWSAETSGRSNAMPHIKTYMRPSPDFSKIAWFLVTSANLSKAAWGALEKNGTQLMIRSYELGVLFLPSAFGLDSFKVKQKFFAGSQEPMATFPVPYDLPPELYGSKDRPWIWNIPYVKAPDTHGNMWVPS

Row | IC50 (TDP1 (148–608)) | IC50 (full-length TDP1 [1]) | Drug solubility [2] | More potent using catalytic domain TDP1 (148–608) relative to full-length TDP1 (TDP1 (148–608); TDP1 (148–608) vs full-length TDP1) | Increase of inhibitory potency on adding a 7-phenyl group (full-length TDP1 [1]; full-length TDP1, 3c and 3e relative to 3b and 3d, 4c relative to 4b) | SMILES | IC50 (full-length TDP1 [3])
1 | 4360 ± 472 µM | 1280 ± 112 µM |  |  |  | O=P(O)(O)Cc1ccc(Nc2c(-c3ccccc3)nc3cnccn23)cc1 [Compound 4a, (4-((2-Phenylimidazo [1,2-a]pyrazin-3-yl)amino)benzyl)phosphonic acid] | 
2 | 1190 ± 350 µM | 583 ± 11.5 µM |  |  | approximately 3 fold | O=P(O)(O)Cc1ccc(Nc2c(-c3ccccc3)nc3cc(-c4ccccc4)ccn23)cc1 [Compound 4c, (4-((2,7-Diphenylimidazo [1,2-a]pyridin-3-yl)amino)benzyl)phosphonic acid] | 
3 | 4810 ± 228 µM | 1650 ± 850 µM |  |  |  | O=P(O)(O)Cc1ccc(Nc2c(-c3ccccc3)nc3ccccn23)cc1 [Compound 4b, (4-((2-Phenylimidazo [1,2-a]pyridin-3-yl)amino)benzyl)phosphonic acid] | 

Continued, compound first:

Row | SMILES | IC50 (TDP1 (148–608)) | IC50 (full-length TDP1 [1]) | Drug solubility [2] | More potent using catalytic domain TDP1 (148–608) relative to full-length TDP1 (TDP1 (148–608); TDP1 (148–608) vs full-length TDP1) | Increase of inhibitory potency on adding a 7-phenyl group (full-length TDP1 [1]; full-length TDP1, 3c and 3e relative to 3b and 3d, 4c relative to 4b) | IC50 (full-length TDP1 [3])
4 | O=P(O)(O)c1ccc(Nc2c(-c3ccccc3O)nc3cc(-c4ccccc4)ccn23)cc1 [Compound 3e, (4-((2-(2-Hydroxyphenyl)-7-phenylimidazo [1,2-a]pyridin-3-yl)amino)phenyl)phosphonic acid] | 605 ± 32 µM | 293 ± 7.5 µM | poor drug solubility |  |  | 
5 | O=C(O)c1ccc(Nc2c(-c3ccccc3)nc3cnccn23)cc1C(=O)O [Compound 2a] |  |  |  |  |  | > 100 µM
6 | O=P(O)(O)c1ccc(Nc2c(-c3ccccc3)nc3cnccn23)cc1 [Compound 3a, (4-((2-Phenylimidazo [1,2-a]pyrazin-3-yl)amino)phenyl)phosphonic acid] | 4720 ± 430 µM | 2450 ± 36 µM |  |  |  | 
7 | O=P(O)(O)c1ccc(Nc2c(-c3ccccc3)nc3cc(-c4ccccc4)ccn23)cc1 [Compound 3c, (4-((2,7-Diphenylimidazo [1,2-a]pyridin-3-yl)amino)phenyl)phosphonic acid] | 225 ± 2.3 µM | 545 ± 8 µM | poor drug solubility | 2 fold |  | 
8 | O=P(O)(O)c1ccc(Nc2c(-c3ccccc3O)nc3ccccn23)cc1 [Compound 3d, (4-((2-(2-Hydroxyphenyl)imidazo [1,2-a]pyridin-3-yl)amino)phenyl)phosphonic acid] | 4480 ± 50 µM | 1580 ± 166 µM |  |  |  | 
9 | O=P(O)(O)c1ccc(Nc2c(-c3ccccc3)nc3ccccn23)cc1 [Compound 3b, (4-((2-Phenylimidazo [1,2-a]pyridin-3-yl)amino)phenyl)phosphonic acid] | 3810 ± 751 µM | 1660 ± 160 µM |  |  |  | 
